Assay results taken from US10988478B1, “Pyrazolo[1,5a]pyrimidine derivatives as IRAK4 modulators” (Genentech, Inc., priority 2015, dated 2021).

target: human IRAK4 (Homo sapiens (Human), UniProt Q9NWZ3); assay: IRAK4 kinase inhibition, Transcreener fluorescence polarization ADP assay; type: biochemical; settings: recombinant full-length His6-IRAK4; 125 uM ATP; 90 min; Ki computed using ATP Km 642 uM
Protocol: Compounds were assayed for inhibition of human IRAK4 and IRAK1 catalytic activity using recombinant enzyme produced from insect cells. Full-length IRAK4 protein, carrying an N-terminal His6-Tag, was obtained from Life Technologies (Carlsbad, Calif., USA). The IRAK1 construct was produced internally and was comprised of IRAK1 residues Arg194 to Ser712, preceded by an NH2-terminal His6 tag and the coding sequence for glutathione-S-transferase.

Sequence of human IRAK4 (Q9NWZ3 whole entry, the tested form may be a part): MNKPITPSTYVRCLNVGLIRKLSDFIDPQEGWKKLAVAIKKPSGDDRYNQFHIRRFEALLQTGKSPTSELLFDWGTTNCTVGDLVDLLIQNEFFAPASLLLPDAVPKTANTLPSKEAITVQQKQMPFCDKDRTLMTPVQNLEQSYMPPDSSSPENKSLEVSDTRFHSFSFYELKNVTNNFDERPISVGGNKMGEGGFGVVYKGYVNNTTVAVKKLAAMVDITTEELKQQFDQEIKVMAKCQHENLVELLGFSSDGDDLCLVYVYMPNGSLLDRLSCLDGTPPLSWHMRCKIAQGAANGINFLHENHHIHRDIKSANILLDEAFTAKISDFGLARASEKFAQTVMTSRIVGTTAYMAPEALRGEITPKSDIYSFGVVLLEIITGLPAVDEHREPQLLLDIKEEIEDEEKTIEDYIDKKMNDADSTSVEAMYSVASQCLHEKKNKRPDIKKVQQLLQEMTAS

In order of falling Ki:
1. CC1(C)Cc2cc(NC(=O)c3cnn4ccc(C[C@H]5CCNC5=O)nc34)c(C3CC3)cc2O1 [Example 514, (R)—N-(6-cyclopropyl-2,2-dimethyl-2,3-dihydrobenzofuran-5-yl)-5-((2-oxopyrrolidin-3-yl)methyl)pyrazolo[1,5-a]pyrimidine-3-carboxamide]  810 nM
2. CC1(C)Cc2cc(NC(=O)c3cnn4ccc(C[C@@H]5CCNC5=O)nc34)c(C3CC3)cc2O1 [Example 515, (S)—N-(6-cyclopropyl-2,2-dimethyl-2,3-dihydrobenzofuran-5-yl)-5-((2-oxopyrrolidin-3-yl)methyl)pyrazolo[1,5-a]pyrimidine-3-carboxamide]  420 nM
3. C[C@@]1(CO)Cc2cc(NC(=O)c3cnn4cccnc34)c(C(F)F)cc2O1 [Example 73, N-[(2S)-6-(Difluoromethyl)-2-(hydroxymethyl)-2-methyl-3H-benzofuran-5-yl]pyrazolo[1,5-a]pyrimidine-3-carboxamide]  360 nM
4. CC1COc2cc(N3CCOCC3)c(NC(=O)c3cnn4cccnc34)cc2N1 (stereo not drawn) [Example 10, N-(3-Methyl-7-morpholino-3,4-dihydro-2H-benzo[b][1,4]oxazin-6-yl)pyrazolo[1,5-a]pyrimidine-3-carboxamide]  270 nM
5. CC1(C)Cc2cc(NC(=O)c3cnn4cccnc34)c(N3CCN(CC4CCC4)CC3)cc2O1 [Example 466, N-(6-(4-(cyclobutylmethyl)piperazin-1-yl)-2,2-dimethyl-2,3-dihydrobenzofuran-5-yl)pyrazolo[1,5-a]pyrimidine-3-carboxamide]  99 nM
6. CC1(C)Cc2cc(NC(=O)c3cnn4cccnc34)c(N3CCN4CCC[C@H]4C3)cc2O1 [Example 442, (S)-N-(6-(hexahydropyrrolo[1,2-a]pyrazin-2(1H)-yl)-2,2-dimethyl-2,3-dihydrobenzofuran-5-yl)pyrazolo[1,5-a]pyrimidine-3-carboxamide]  96 nM
7. Cn1cncc1C1CCN(c2cc3c(cc2NC(=O)c2cnn4cccnc24)CC(C)(C)O3)C1 (stereo not drawn) [Example 188, N-[2,2-dimethyl-6-[3-(3-methylimidazol-4-yl)pyrrolidin-1-yl]-3H-benzofuran-5-yl]pyrazolo[1,5-a]pyrimidine-3-carboxamide]  84 nM
8. CC1(C)Cc2cc(NC(=O)c3cnn4cccnc34)c(N3CCN(CC4CCOCC4)CC3)cc2O1 [Example 464, N-(2,2-dimethyl-6-(4-((tetrahydro-2H-pyran-4-yl)methyl)piperazin-1-yl)-2,3-dihydrobenzofuran-5-yl)pyrazolo[1,5-a]pyrimidine-3-carboxamide]  67 nM
9. C[C@]1(O)COc2cc(N3CCN(CC(F)F)CC3)c(NC(=O)c3cnn4cccnc34)cc2C1 [Example 510, (R)—N-(7-(4-(2,2-difluoroethyl)piperazin-1-yl)-3-hydroxy-3-methylchroman-6-yl)pyrazolo[1,5-a]pyrimidine-3-carboxamide]  44 nM
10. C[C@]1(CO)Cc2cc(NC(=O)c3cnn4cccnc34)c(N3C[C@@H]4[C@H](C3)[C@H]4C(N)=O)cc2O1 [Example 413, N-((R)-6-((1R,5S,6R)-6-carbamoyl-3-azabicyclo[3.1.0]hexan-3-yl)-2-(hydroxymethyl)-2-methyl-2,3-dihydrobenzofuran-5-yl)pyrazolo[1,5-a]pyrimidine-3-carboxamide]  32 nM
11. C[C@@]1(COC(F)F)Cc2cc(NC(=O)c3cnn4cccnc34)c(N3CCOCC3)cc2O1 [Example 156, (S)—N-(2-((difluoromethoxy)methyl)-2-Methyl-6-morpholino-2,3-dihydrobenzofuran-5-yl)pyrazolo[1,5-a]pyrimidine-3-carboxamide]  27 nM
12. CC1Cc2cc(NC(=O)c3cnn4cccnc34)c(N3CCOCC3)cc2O1 (stereo not drawn) [Example 14, N-(2-Methyl-6-morpholino-2,3-dihydrobenzofuran-5-yl)pyrazolo[1,5-a]pyrimidine-3-carboxamide]  19 nM
13. CC(C)(O)C(F)C1(C)Cc2cc(NC(=O)c3cnn4cccnc34)c(N3CCOCC3)cc2O1 (stereo not drawn) [Example 392, N-[2-(1-fluoro-2-hydroxy-2-methyl-propyl)-2-methyl-6-morpholino-3H-benzofuran-5-yl]pyrazolo[1,5-a]pyrimidine-3-carboxamide]  18 nM
14. CC[C@@]1(C)Cc2cc(NC(=O)c3cnn4cccnc34)c(N3CCOCC3)cc2O1 [Example 96, (S)—N-(2-ethyl-2-methyl-6-morpholino-2,3-dihydrobenzofuran-5-yl)pyrazolo[1,5-a]pyrimidine-3-carboxamide]  14 nM
15. O=C(Nc1cc2c(cc1N1CCOCC1)C(=O)N([C@H]1CCC[C@@H]1CO)C2)c1cnn2cccnc12 [Example 566, N-(2-((1S,2S)-2-(hydroxymethyl)cyclopentyl)-6-morpholino-1-oxoisoindolin-5-yl)pyrazolo[1,5-a]pyrimidine-3-carboxamide]  8 nM
16. C[C@@]1(CO)Cc2cc(NC(=O)c3cnn4cccnc34)c(N3CCN(CCO)CC3)cc2O1 [Example 88, N-[(2S)-6-[4-(2-Hydroxyethyl)piperazin-1-yl]-2-(hydroxymethyl)-2-methyl-3H-benzofuran-5-yl]pyrazolo[1,5-a]pyrimidine-3-carboxamide]  7.6 nM
17. C[C@]1(CO)Cc2cc(NC(=O)c3cnn4cccnc34)c(N3CCC([C@](C)(O)C(F)(F)F)CC3)cc2O1 [Example 410, N—((R)-2-(hydroxymethyl)-2-methyl-6-(4-((S)-1,1,1-trifluoro-2-hydroxypropan-2-yl)piperidin-1-yl)-2,3-dihydrobenzofuran-5-yl)pyrazolo[1,5-a]pyrimidine-3-carboxamide]  6.2 nM
18. CC(CC(C)(C)O)N1Cc2cc(NC(=O)c3cnn4cccnc34)c(N3CCOCC3)cc2C1=O (stereo in doubt) [Example 545, N-[2-[(1R)-3-hydroxy-1,3-dimethyl-butyl]-6-morpholino-1-oxo-isoindolin-5-yl]pyrazolo[1,5-a]pyrimidine-3-carboxamide]  5.9 nM
19. O=C(Nc1cc2c(cc1N1CCOCC1)OC1(CCN(CC(F)F)CC1)C2)c1cnn2cccnc12 [Example 370, N-[1′-(2,2-difluoroethyl)-6-morpholino-spiro[3H-benzofuran-2,4′-piperidine]-5-yl]pyrazolo[1,5-a]pyrimidine-3-carboxamide]  5.8 nM
20. C[C@@]1(CO)Cc2cc(NC(=O)c3cnn4cccnc34)c(N3CCC4(CCOC4)CC3)cc2O1 [Example 126, (S)—N-(2-(hydroxymethyl)-2-methyl-6-(2-oxa-8-azaspiro[4.5]decan-8-yl)-2,3-dihydrobenzofuran-5-yl)pyrazolo[1,5-a]pyrimidine-3-carboxamide]  5.7 nM
21. CC(C)(O)C1(C)Cc2cc(NC(=O)c3cnn4cccnc34)c(N3CCN(CC(N)=O)CC3)cc2O1 (stereo not drawn) [Example 356, N-[6-[4-(2-amino-2-oxo-ethyl)piperazin-1-yl]-2-(1-hydroxy-1-methyl-ethyl)-2-methyl-3H-benzofuran-5-yl]pyrazolo[1,5-a]pyrimidine-3-carboxamide]  4 nM
22. CC(C)(O)[C@H](F)CN1Cc2cc(NC(=O)c3cnn4cccnc34)c(Cl)cc2C1=O [Example 521, N-[6-chloro-2-[(2R)-2-fluoro-3-hydroxy-3-methyl-butyl]-1-oxo-isoindolin-5-yl]pyrazolo[1,5-a]pyrimidine-3-carboxamide]  4 nM
23. C[C@@]1(CO)Cc2cc(NC(=O)c3cnn4cccnc34)c(N3CCN(CC(F)F)CC3)cc2O1 [Example 99, N-[(2S)-6-[4-(2,2-difluoroethyl)piperazin-1-yl]-2-(hydroxymethyl)-2-methyl-3H-benzofuran-5-yl]pyrazolo[1,5-a]pyrimidine-3-carboxamide]  3.3 nM
24. CC1(C)Cc2cc(NC(=O)c3cnn4cccnc34)c(N3CCN(CCn4ccnc4)CC3)cc2O1 [Example 231, N-(6-(4-(2-(1H-Imidazo1-1-yl)ethyl)piperazin-1-yl)-2,2-dimethyl-2,3-dihydrobenzofuran-5-yl)pyrazolo[1,5-a]pyrimidine-3-carboxamide]  3 nM
25. CNc1cnc2c(C(=O)Nc3cc4c(cc3N3CCN(CC(F)F)CC3)O[C@](C)(CO)C4)cnn2c1 [Example 381, (S)-N-(6-(4-(2,2-difluoroethyl)piperazin-1-yl)-2-(hydroxymethyl)-2-methyl-2,3-dihydrobenzofuran-5-yl)-6-(methylamino)pyrazolo[1,5-a]pyrimidine-3-carboxamide]  3 nM
26. CC(C)(O)[C@H](F)CN1Cc2cc(NC(=O)c3cnn4cccnc34)c(N3CCC([C@H](O)C(F)F)CC3)cc2C1=O (single isomer, unassigned) [Example 282]  2 nM
27. Cc1cnc2c(C(=O)Nc3cc4c(cc3N3CCC(CO)CC3)OC(C)(C)C4)cnn2c1 [Example 12, N-(6-(4-(Hydroxymethyl)piperidin-1-yl)-2,2-dimethyl-2,3-dihydrobenzofuran-5-yl)-6-methylpyrazolo[1,5-a]pyrimidine-3-carboxamide]  2 nM
28. CC(C)(O)[C@H](F)CN1Cc2cc(NC(=O)c3cnn4cccnc34)c(N3CCOCC3)cc2C1=O [Example 139, (R)—N-(2-(2-Fluoro-3-hydroxy-3-methylbutyl)-6-morpholino-1-oxoisoindolin-5-yl)pyrazolo[1,5-a]pyrimidine-3-carboxamide]  1.5 nM
29. CC1(C)Cc2cc(NC(=O)c3cnn4cccnc34)c(N3CCC(F)(CO)CC3)cc2O1 [Example 40, N-(6-(4-Fluoro-4-(hydroxymethyl)piperidin-1-yl)-2,2-dimethyl-2,3-dihydrobenzofuran-5-yl)pyrazolo[1,5-a]pyrimidine-3-carboxamide]  1 nM
30. O=C(Nc1cc2c(cc1N1CCOCC1)C(=O)N([C@@H]1CCOC[C@H]1F)C2)c1cnn2cccnc12 [Example 400, N-[2-[(3S,4R)-3-fluorotetrahydropyran-4-yl]-6-morpholino-1-oxo-isoindolin-5-yl]pyrazolo[1,5-a]pyrimidine-3-carboxamide]  1 nM
